Experimental data reported in the C3SDB collision cross section collection.

Key:
[1] = instrument: DT, stepped-field
[2] = instrument: DT, single field, calibrated with Agilent tune mix (Agilent)

CCCCCCCCCCCCC=CC[C@@H](O)[C@H](CO[C@@H]1O[C@H](CO)[C@@H](O)C(O)C1O)NC(=O)CC=CCCCCCCCCCCCCCC (stereo not given in full) [GlcCer(36:2)]
collision cross section (N2) ([1]; [M+Na]+): 282.6 Å² | collision cross section (N2) ([2]; [M+H]+): 283.4 Å²

CCCCCCCCCCCCCCCCCCCCCCCC(=O)N[C@@H](CO[C@@H]1O[C@H](CO)[C@@H](O)C(O)C1O)[C@H](O)CCCCCCCCCCCCCCC (stereo not given in full) [GlcCer(42:0)]
collision cross section (N2) ([1]; [M+Na]+): 308.2 Å² | collision cross section (N2) ([2]; [M+HCOO]-): 300.8 Å²

CCCCCCCCCCCCC=CC[C@@H](O)[C@H](CO[C@@H]1O[C@H](CO)[C@@H](O)C(O)C1O)NC(=O)CC=CCCCCCCCCCCCCCCCCCCCC (stereo not given in full) [GlcCer(42:2)]
collision cross section (N2) ([1]; [M+Na]+): 305.2 Å² | collision cross section (N2) ([2]; [M+HCOO]-): 298.5 Å² | collision cross section (N2) ([2]; [M+H]+): 300.9 Å² | collision cross section (N2) ([2]; [M+Na]+): 300.4 Å²

CCCC/C=C\C/C=C\CCCCCCCC(=O)O[C@H](COC(=O)CCCCCCC/C=C\CCCCCCCC)COP(=O)([O-])OCC[N+](C)(C)C [PC(35:3)]
collision cross section (N2) ([1]; [M+K]+): 296.1 Å² | collision cross section (N2) ([2]; [M+H]+): 284.2 Å²

CCCCCCCCCC/C=C\CCCCCCCCCC(=O)O[C@H](COC(=O)CCCCCCCCCCCC)COP(=O)(O)OCCN [PE(35:1)]
collision cross section (N2) ([1]; [M+K]+): 283.6 Å² | collision cross section (N2) ([1]; [M+Na]+): 282.9 Å² | collision cross section (N2) ([2]; [M+H]+): 276.6 Å²

CCCCC/C=C\C/C=C\CCCCCCCCCC(=O)O[C@H](COC(=O)CCCCCCC/C=C\CCCCCCC)COP(=O)(O)OCCN [PE(37:3)]
collision cross section (N2) ([1]; [M+K]+): 286.5 Å² | collision cross section (N2) ([1]; [M+Na]+): 286.2 Å²

CCCC/C=C\C/C=C\CCCCCCCC(=O)OC[C@H](COP(=O)(O)OCCN)OC(=O)CCCCC/C=C\C/C=C\C/C=C\C/C=C\CCCCC [PE(39:6)]
collision cross section (N2) ([1]; [M+Na]+): 286.4 Å²

CC/C=C\C/C=C\C/C=C\C/C=C\C/C=C\C/C=C\CCC(=O)OC[C@H](COP(=O)(O)OCCN)OC(=O)CC/C=C\C/C=C\C/C=C\C/C=C\C/C=C\C/C=C\CC [PE(44:12)]
collision cross section (N2) ([1]; [M+Na]+): 299.7 Å²

CCCCC/C=C\C/C=C\CCCCCCCC(=O)O[C@H](COCCCCCCCCCCCCCCCC)COP(=O)(O)OCCN [PE(o34:2)]
collision cross section (N2) ([1]; [M+Na]+): 279.7 Å²

CCCCC/C=C\C/C=C\C/C=C\C/C=C\CCCC(=O)O[C@H](COC(=O)CCCCCCCCCCCCCCCC)COP(=O)(O)OC[C@H](N)C(=O)O [PS(37:4)]
collision cross section (N2) ([1]; [M+Na]+): 295 Å²

CCCCC/C=C\C/C=C\C/C=C\C/C=C\CCCC(=O)OC[C@H](COP(=O)(O)OC[C@H](N)C(=O)O)OC(=O)CCCC/C=C\C/C=C\C/C=C\CCCCC [PS(38:7)]
collision cross section (N2) ([1]; [M+Na]+): 290.2 Å²

CC/C=C\C/C=C\C/C=C\C/C=C\C/C=C\C/C=C\CCC(=O)OC[C@H](COP(=O)(O)OC[C@H](N)C(=O)O)OC(=O)CCCCCCC/C=C\CCCCCCCC [PS(40:7)]
collision cross section (N2) ([1]; [M+Na]+): 295.6 Å²

CC/C=C\C/C=C\C/C=C\C/C=C\C/C=C\C/C=C\CCC(=O)O[C@H](COC(=O)CCCCCCCCCCCCCCCCCC)COP(=O)(O)OC[C@H](N)C(=O)O [PS(41:6)]
collision cross section (N2) ([1]; [M+Na]+): 303.3 Å²

CCCCC/C=C\C/C=C\C/C=C\C/C=C\CCCCCC(=O)O[C@H](COC(=O)CCCCCCCCC/C=C\CCCCCCCC)COP(=O)(O)OC[C@H](N)C(=O)O [PS(42:5)]
collision cross section (N2) ([1]; [M+Na]+): 307 Å²

CC/C=C\C/C=C\C/C=C\C/C=C\C/C=C\C/C=C\CCC(=O)O[C@H](COC(=O)CCCCCC/C=C\C/C=C\C/C=C\CCCCC)COP(=O)(O)OC[C@H](N)C(=O)O [PS(42:9)]
collision cross section (N2) ([1]; [M+Na]+): 302 Å²

CCCCCCCC=CCC=CCC=CCC=CCC=CCC(=O)OC[C@H](COP(=O)(O)OC[C@H](N)C(=O)O)OC(=O)CC=CCC=CCC=CCC=CCC=CCCCCCCC [PS(46:10)]
collision cross section (N2) ([1]; [M+K]+): 306.3 Å² | collision cross section (N2) ([1]; [M+Na]+): 309.2 Å²

CCCCC=CCC=CCC=CCC=CCC=CCC=CCC(=O)OC[C@H](COP(=O)(O)OC[C@H](N)C(=O)O)OC(=O)CC=CCC=CCC=CCC=CCC=CCC=CCCCC [PS(46:12)]
collision cross section (N2) ([1]; [M+Na]+): 309.5 Å²

CCCCCC=CCC=CCC=CCC=CCC=CCC=CCC(=O)OC[C@H](COP(=O)(O)OC[C@H](N)C(=O)O)OC(=O)CC=CCC=CCC=CCC=CCC=CCC=CCCCCC [PS(48:12)]
collision cross section (N2) ([1]; [M+K]+): 313.6 Å²

CCC=CCC=CCC=CCC=CCC=CCC=CCC=CCC(=O)OC[C@H](COP(=O)(O)OC[C@H](N)C(=O)O)OC(=O)CC=CCC=CCC=CCC=CCC=CCC=CCC=CCC [PS(48:14)]
collision cross section (N2) ([1]; [M+K]+): 311 Å² | collision cross section (N2) ([1]; [M+Na]+): 312 Å²

CCC(C)[C@H](NC(=O)[C@@H](N)CCC(N)=O)C(=O)N[C@@H](CO)C(=O)N[C@H](C(=O)N[C@@H](CCCNC(=N)N)C(=O)O)C(C)C (stereo not given in full) [QISVR]
collision cross section (N2) ([1]; [M+H]+): 241.4 Å²

CCC(C)[C@H](NC(=O)[C@H](CO)NC(=O)[C@@H](NC(=O)[C@@H](N)CO)C(C)CC)C(=O)N[C@H](C(=O)NCC(=O)N[C@@H](CO)C(=O)N[C@@H](Cc1ccc(O)cc1)C(=O)N[C@H](C(=O)NCC(=O)N[C@@H](CC(N)=O)C(=O)N[C@@H](CCCNC(=N)N)C(=O)O)C(C)C)C(C)C (stereo not given in full) [SISIVGSYVGNR]
collision cross section (N2) ([1]; [M+H]+): 349.1 Å²

CCCCCCCCCCCCC=CC[C@@H](O)[C@H](COP(=O)([O-])OCC[N+](C)(C)C)NC(=O)CC=CCCCCCCCCCCCCCCCCCCCCCC [SM(44:2)]
collision cross section (N2) ([1]; [M+Na]+): 313.5 Å²

CC(C)[C@H](NC(=O)[C@@H](N)CO)C(=O)N[C@@H](Cc1ccc(O)cc1)C(=O)N[C@@H](CC(=O)O)C(=O)N[C@@H](CO)C(=O)N[C@@H](CCCNC(=N)N)C(=O)O [SVYDSR]
collision cross section (N2) ([1]; [M+H]+): 258.4 Å²

CCCCCCC[N+](CCCCCCC)(CCCCCCC)CCCCCCC [TAA7]
collision cross section (N2) ([1]; [M]+): 236.4 Å²

CCCCCCCCCCCCCCCCCC[N+](CCCCCCCCCCCCCCCCCC)(CCCCCCCCCCCCCCCCCC)CCCCCCCCCCCCCCCCCC [TAA18]
collision cross section (N2) ([1]; [M]+): 379 Å²

CC(C)C[C@H](NC(=O)[C@H](CO)NC(=O)[C@H](C)NC(=O)[C@@H](N)C(C)C)C(=O)N[C@@H](CCCNC(=N)N)C(=O)O [VASLR]
collision cross section (N2) ([1]; [M+H]+): 232.5 Å²

CC(C)C[C@H](NC(=O)[C@H](CC(=O)O)NC(=O)[C@@H](NC(=O)[C@H](CC(C)C)NC(=O)[C@@H](N)C(C)C)C(C)C)C(=O)N[C@@H](CCC(=O)O)C(=O)N[C@@H](CCCNC(=N)N)C(=O)O [VLVDLER]
collision cross section (N2) ([1]; [M+H]+): 285.7 Å²

CCC(C)C(NC(=O)C(N)Cc1c[nH]c2ccccc12)C(=O)NC(CCCN=C(N)N)C(=O)O (stereo not given) [WIR]
collision cross section (N2) ([1]; [M+H]+): 215.4 Å²

CC(C)C[C@H](NC(=O)[C@H](CC(=O)O)NC(=O)[C@@H](N)Cc1ccc(O)cc1)C(=O)N[C@@H](CC(=O)O)C(=O)N[C@@H](Cc1ccccc1)C(=O)N[C@@H](CCCCN)C(=O)O [YDLDFK]
collision cross section (N2) ([1]; [M+H]+): 272.4 Å²
